Assay results published in the supplement of paper PMC10627819.

Tests used:
[1] = tested on: S. aureus Newman; experiment: fitness (endpoint OD595 vs no drug) (fraction); higher = more growth; settings: one replicate
Outline: (§1)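 Bacterial fitness was scored as optical density at the stationary-phase transition relative to the robust mean of no-drug control wells. Scores are capped at 1. The growth data were OD595 readings every 30 min for 14 h at 37 °C, background-subtracted against the first reading, from 384-well plates inoculated at OD595 0.01 in TSB, LB Lennox or CY.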

[2] = tested on: B. subtilis 168; experiment: Bliss interaction score (quartile over a dose matrix) (fitness difference); higher = more antagonism (negative = synergy)
Outline: (§2)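 The Bliss score is observed fitness minus expected fitness, where the expected value is the product of single-drug fitness values inferred from combination data. Fitness is OD595 at entry into stationary phase normalised to the plate's robust no-drug mean and capped at 1. Scores are reported as quartiles spanning technical, biological and donor/recipient replicates.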

[3] = tested on: S. aureus DSM 20231; experiment: as above
Outline: as §2

[4] = tested on: S. aureus Newman; experiment: as above
Outline: as §2

[5] = tested on: S. pneumoniae D39V; experiment: as above
Outline: as §2

[6] = tested on: B. subtilis 168; experiment: fitness (endpoint OD595 vs no drug) (fraction); higher = more growth
Outline: as §1

[7] = tested on: S. pneumoniae D39V; experiment: as above
Outline: as §1
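Throughout, for Bliss interaction score (quartile over a dose matrix): first quartile when negative (synergy) and third quartile when positive (antagonism).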
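Throughout, for fitness (endpoint OD595 vs no drug): OD595 on entry to stationary phase over no-drug wells; at most 1.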

CO/N=C(\C(=O)N[C@@H]1C(=O)N2C(C(=O)O)=C(COC(N)=O)CS[C@H]12)c1ccco1 [Cefuroxime] + CN[C@H](CC(C)C)C(=O)N[C@H]1C(=O)N[C@@H](CC(N)=O)C(=O)N[C@H]2C(=O)N[C@H]3C(=O)N[C@H](C(=O)N[C@H](C(=O)O)c4cc(O)cc(O)c4-c4cc3ccc4O)[C@H](O)c3ccc(c(Cl)c3)Oc3cc2cc(c3O[C@@H]2O[C@H](CO)[C@@H](O)[C@H](O)[C@H]2O[C@H]2C[C@](C)(N)[C@H](O)[C@H](C)O2)Oc2ccc(cc2Cl)[C@H]1O [Vancomycin]
fitness, [1]
Settings | first compound 0.04875 µg/mL | first compound 0.0975 µg/mL | first compound 0.195 µg/mL
partner 0.1875 µg/mL | 0.934 | 0.974 | 0.943
partner 0.375 µg/mL | 0.93 | 0.995 | 0.925
partner 0.75 µg/mL | 0.975 | 0.988 | 0.926

Settings | Bliss interaction score
[2] | -0.0941
[3] | 0.14
[4] | 0.0418
[5] | -0.0597

CO/N=C(\C(=O)N[C@@H]1C(=O)N2C(C(=O)O)=C(COC(C)=O)CS[C@H]12)c1csc(N)n1 [Cefotaxime] + C[C@H]1COc2c(N3CCN(C)CC3)c(F)cc3c(=O)c(C(=O)O)cn1c23 [Levofloxacin]
fitness, [6], one replicate
Settings | first compound 0.00775 µg/mL | first compound 0.0155 µg/mL | first compound 0.031 µg/mL | first compound 0.0625 µg/mL | first compound 0.125 µg/mL | first compound 0.25 µg/mL
partner 0.001 µg/mL | – | – | – | 0.491 | 0.378 | 0.158
partner 0.002 µg/mL | 0.874 | 0.691 | 0.57 | 0.382 | 0.311 | 0.158
partner 0.0039 µg/mL | 0.834 | 0.683 | 0.565 | 0.418 | 0.306 | 0.128
partner 0.0078 µg/mL | 0.812 | 0.659 | 0.496 | – | – | –

Settings | fitness
[6], first compound 0.5 µg/mL, partner 0.0312 µg/mL | 0.0483
[6], first compound 0.5 µg/mL, partner 0.0625 µg/mL | 0.0584
[6], first compound 0.5 µg/mL, partner 0.125 µg/mL | 0.0586
[6], first compound 1 µg/mL, partner 0.0312 µg/mL | 0.0414
[6], first compound 1 µg/mL, partner 0.0625 µg/mL | 0.0443
[6], first compound 1 µg/mL, partner 0.125 µg/mL | 0.0448
[6], first compound 2 µg/mL, partner 0.0312 µg/mL | 0.0456
[6], first compound 2 µg/mL, partner 0.0625 µg/mL | 0.0537
[6], first compound 2 µg/mL, partner 0.125 µg/mL | 0.0738
[7], first compound 0.0018 µg/mL, partner 0.1725 µg/mL | 0.986
[7], first compound 0.0018 µg/mL, partner 0.2 µg/mL | 0.966
[7], first compound 0.0018 µg/mL, partner 0.345 µg/mL | 0.956
[7], first compound 0.0018 µg/mL, partner 0.4 µg/mL | 0.925
[7], first compound 0.0018 µg/mL, partner 0.69 µg/mL | 0.701
[7], first compound 0.0018 µg/mL, partner 0.8 µg/mL | 0.632
[7], first compound 0.0035 µg/mL, partner 0.1725 µg/mL | 0.985
[7], first compound 0.0035 µg/mL, partner 0.2 µg/mL | 0.943
[7], first compound 0.0035 µg/mL, partner 0.345 µg/mL | 0.939
[7], first compound 0.0035 µg/mL, partner 0.4 µg/mL | 0.894
[7], first compound 0.0035 µg/mL, partner 0.69 µg/mL | 0.656
[7], first compound 0.0035 µg/mL, partner 0.8 µg/mL | 0.611
[7], first compound 0.007 µg/mL, partner 0.1725 µg/mL | 0.824
[7], first compound 0.007 µg/mL, partner 0.2 µg/mL | 0.922
[7], first compound 0.007 µg/mL, partner 0.345 µg/mL | 0.731
[7], first compound 0.007 µg/mL, partner 0.4 µg/mL | 0.846
[7], first compound 0.007 µg/mL, partner 0.8 µg/mL | 0.548

Settings | Bliss interaction score
[2] | 0.0631
[3] | -0.0398
[4] | 0.0336
[5] | 0.112

C[C@H]1c2cccc(O)c2C(=O)C2=C(O)[C@]3(O)C(=O)C(C(N)=O)=C(O)[C@@H](N(C)C)[C@@H]3[C@@H](O)[C@@H]21 [Doxycycline] + CN[C@@H]1[C@H](O)[C@H](NC)[C@H]2O[C@@]3(O)C(=O)C[C@@H](C)O[C@H]3O[C@@H]2[C@H]1O [Spectinomycin]
fitness
Settings | partner 2 µg/mL | partner 4 µg/mL | partner 8 µg/mL | partner 16 µg/mL
[6], first compound 0.02 µg/mL | 0.909 | 0.881 | 0.835 | –
[6], first compound 0.04 µg/mL | 0.824 | 0.828 | 0.712 | –
[6], first compound 0.08 µg/mL | 0.546 | – | 0.402 | –
[7], first compound 0.0155 µg/mL | – | 0.91 | 0.869 | 0.805
[7], first compound 0.031 µg/mL | – | 0.879 | 0.822 | –
[7], first compound 0.062 µg/mL | – | 0.783 | 0.758 | –

fitness, [7], one replicate
Settings | first compound 0.003875 µg/mL | first compound 0.00775 µg/mL | first compound 0.031 µg/mL | first compound 0.062 µg/mL
partner 4 µg/mL | 0.971 | 0.908 | – | –
partner 8 µg/mL | 0.949 | 0.925 | – | –
partner 16 µg/mL | 0.804 | 0.834 | 0.768 | 0.673

Settings | Bliss interaction score
[2] | -0.0339
[3] | -0.0389
[4] | -0.0405
[5] | -0.0375

C[C@H]1c2cccc(O)c2C(=O)C2=C(O)[C@]3(O)C(=O)C(C(N)=O)=C(O)[C@@H](N(C)C)[C@@H]3[C@@H](O)[C@@H]21 [Doxycycline] + CN(N=O)C(=O)N[C@@H](C=O)[C@@H](O)[C@H](O)[C@H](O)CO [Streptozotocin]
Settings | fitness
[6], first compound 0.02 µg/mL, partner 0.15 µg/mL | 0.917
[6], first compound 0.02 µg/mL, partner 0.3 µg/mL | 0.97
[6], first compound 0.02 µg/mL, partner 0.6 µg/mL | 0.901
[6], first compound 0.04 µg/mL, partner 0.15 µg/mL | 0.773
[6], first compound 0.04 µg/mL, partner 0.3 µg/mL | 0.789
[6], first compound 0.04 µg/mL, partner 0.6 µg/mL | 0.786
[6], first compound 0.08 µg/mL, partner 0.3 µg/mL | 0.538
[6], first compound 0.08 µg/mL, partner 0.6 µg/mL | 0.531
[7], first compound 0.0155 µg/mL, partner 1.2 µg/mL | 0.919
[7], first compound 0.0155 µg/mL, partner 2.4 µg/mL | 0.896
[7], first compound 0.0155 µg/mL, partner 4.8 µg/mL | 0.914
[7], first compound 0.031 µg/mL, partner 1.2 µg/mL | 0.837
[7], first compound 0.031 µg/mL, partner 2.4 µg/mL | 0.847
[7], first compound 0.031 µg/mL, partner 4.8 µg/mL | 0.822
[7], first compound 0.062 µg/mL, partner 1.2 µg/mL | 0.754
[7], first compound 0.062 µg/mL, partner 2.4 µg/mL | 0.761
[7], first compound 0.062 µg/mL, partner 4.8 µg/mL | 0.71

fitness, [7], one replicate
Settings | partner 1.2 µg/mL | partner 2.4 µg/mL | partner 4.8 µg/mL
first compound 0.003875 µg/mL | 0.989 | 0.971 | 0.984
first compound 0.00775 µg/mL | 0.926 | 0.913 | 0.933

Settings | Bliss interaction score
[2] | 0.0094
[3] | 0.0373
[4] | 0.0413
[5] | -0.0474

C[C@H]1c2cccc(O)c2C(=O)C2=C(O)[C@]3(O)C(=O)C(C(N)=O)=C(O)[C@@H](N(C)C)[C@@H]3[C@@H](O)[C@@H]21 [Doxycycline] + O=C(O[C@@H]1Cc2c(O)cc(O)cc2O[C@@H]1c1cc(O)c(O)c(O)c1)c1cc(O)c(O)c(O)c1 [EGCG]
Settings | fitness
[6], first compound 0.02 µg/mL, partner 6.25 µg/mL | 0.901
[6], first compound 0.04 µg/mL, partner 6.25 µg/mL | 0.767
[6], first compound 0.08 µg/mL, partner 6.25 µg/mL | 0.53
[6], first compound 0.08 µg/mL, partner 12.5 µg/mL | 0.315
[6], first compound 0.08 µg/mL, partner 25 µg/mL | 0.0902
[7], first compound 0.0155 µg/mL, partner 12.5 µg/mL | 0.85
[7], first compound 0.0155 µg/mL, partner 25 µg/mL | 0.864
[7], first compound 0.0155 µg/mL, partner 50 µg/mL | 0.881
[7], first compound 0.031 µg/mL, partner 25 µg/mL | 0.755

fitness, [7], one replicate
Settings | partner 12.5 µg/mL | partner 25 µg/mL | partner 50 µg/mL
first compound 0.003875 µg/mL | 0.954 | 0.985 | 0.995
first compound 0.00775 µg/mL | 0.919 | 0.966 | 0.964

Settings | Bliss interaction score
[2] | 0.147
[3] | 0.0387
[4] | 0.088
[5] | -0.0707

Cc1ncc([N+](=O)[O-])n1CCO [Metronidazole] + CCC(C)C1C(=O)NC(=C)C(=O)NC(C(=O)NC(CSCC(C(=O)N1)NC(=O)/C(=C/C)/NC(=O)C(C(C)CC)N)C(=O)NC2C(SCC(NC(=O)CNC(=O)C3CCCN3C2=O)C(=O)NC(CCCCN)C(=O)NC4C(SCC(NC(=O)CNC(=O)C(NC(=O)C(NC(=O)C(NC(=O)CNC4=O)C)CC(C)C)CCSC)C(=O)NC(CC(=O)N)C(=O)NC(CCSC)C(=O)NC(CCCCN)C(=O)NC5C(SCC6C(=O)NC(C(=O)NC(CSC(C(C(=O)N6)NC(=O)C(NC5=O)C)C)C(=O)NC(CO)C(=O)NC(C(C)CC)C(=O)NC(CC7=CN=CN7)C(=O)NC(C(C)C)C(=O)NC(=C)C(=O)NC(CCCCN)C(=O)O)CC8=CN=CN8)C)C)C)CC(C)C [Nisin]
fitness, [6], one replicate, main component drawn
Settings | first compound 0.625 µg/mL | first compound 1.25 µg/mL | first compound 2.5 µg/mL
partner 0.5 µg/mL | 0.831 | 0.806 | 0.795
partner 1 µg/mL | 0.838 | 0.797 | 0.803
partner 1.25 µg/mL | 0.909 | 0.939 | 0.91
partner 1.6 µg/mL | 0.796 | 0.809 | 0.755
partner 2 µg/mL | 0.571 | 0.528 | 0.537
partner 2.5 µg/mL | 0.366 | 0.666 | 0.616
partner 3.2 µg/mL | 0.0225 | 0.03 | 0.0513
partner 4 µg/mL | 0.61 | 0.534 | 0.333
partner 5 µg/mL | 0.0544 | 0.0891 | 0.149
partner 6.4 µg/mL | 0.0311 | 0.0509 | 0.0479
partner 8 µg/mL | 0.0261 | 0.0271 | 0.0234
partner 16 µg/mL | 0.0228 | 0.0235 | 0.015

[7], main component drawn
Settings | fitness
first compound 1.073 µg/mL, partner 3.2 µg/mL | 0.0352
first compound 1.073 µg/mL, partner 6.4 µg/mL | 0.0007
first compound 1.25 µg/mL, partner 0.4275 µg/mL | ≥ 1
first compound 1.25 µg/mL, partner 0.855 µg/mL | ≥ 1
first compound 1.25 µg/mL, partner 1.71 µg/mL | 0.127
first compound 2.145 µg/mL, partner 1.6 µg/mL | 0.809
first compound 2.145 µg/mL, partner 3.2 µg/mL | 0.0201
first compound 2.145 µg/mL, partner 6.4 µg/mL | 0
first compound 2.5 µg/mL, partner 0.4275 µg/mL | ≥ 1
first compound 2.5 µg/mL, partner 0.855 µg/mL | ≥ 1
first compound 2.5 µg/mL, partner 1.71 µg/mL | 0.121
first compound 4.29 µg/mL, partner 1.6 µg/mL | 0.747
first compound 4.29 µg/mL, partner 3.2 µg/mL | 0.0174
first compound 4.29 µg/mL, partner 6.4 µg/mL | 0
first compound 5 µg/mL, partner 0.4275 µg/mL | 0.968
first compound 5 µg/mL, partner 0.855 µg/mL | ≥ 1
first compound 5 µg/mL, partner 1.71 µg/mL | 0.1

main component drawn
Settings | Bliss interaction score
[2] | 0.0914
[3] | 0.153
[4] | 0.0893
[5] | 0.0647
